Measurements reported in article PMC10999085, “Synthesis, anticancer evaluation, molecular docking and ADME study of novel pyrido[4ʹ,3ʹ:3,4]pyrazolo[1,5-a]pyrimidines as potential tropomyosin receptor kinase A (TrKA) inhibitors” (BMC Chemistry, 2024).
Converted amounts (≈) assume the structure as drawn. “Also recorded” adds a separate entry of the source.

Experiments:
MCF7 cell line = assay: MTT assay, MCF7 cell line; format: cell-based, human; conditions: 24 hr treatment, in % (unit assumed); for Cytotoxicity at 5 µg/l: MCF7, 5 µg/l; for Cytotoxicity at 10 µg/l: MCF7, 10 µg/l; for Cytotoxicity at 20 µg/l: MCF7, 20 µg/l
Method: (§1) Determination of the inhibitory effects of compounds on cell growth was performed through the MTT assay. This colorimetric assay is based on the conversion of the yellow tetrazolium bromide (MTT) to a purple formazan derivative by mitochondrial succinate dehydrogenase in viable cells. The protocol was discussed in details in Additional file 1.
(§2) Compounds 1, 4a,b, 7a–c, 7k, l, 9a–c, 14a, 15b, 16a–c were selected to be investigated against three human cancer cell lines MCF7, HepG2 and HCT116 cell lines using MTT assay using doxorubicin as the standard drug. Each point is the mean ± SD (standard deviation) of three independent experiments performed in triplicate, using the prism software program (integrated Graphpad software, version 3).
(§3) Cell lines were used to measure the cell growth effects of the compounds using the MTT assay. This colorimetric assay is depend on the conversion of the yellow tetrazolium bromide (MTT) to a purple formazan derivative by mitochondrial succinate dehydrogenase in living cells. Cell lines were cultured in RPMI-1640 medium supplemented with 10% fetal bovine serum. The antibiotics added were 100 units/ml penicillin and 100 µg/ml streptomycin at 37 °C in a 5% CO2 incubator. Cell lines were seeded in a 96-well plates at a density of 1.0x10^4 cells/well and cultured at 37 °C for 48 h under 5% CO2. After incubation, the cells were treated with different concentrations of compounds and incubated for 24 hr. After 24 hr of drug treatment, 20 µl of MTT solution at 5 mg/ml was added to each well and incubated for 4 hr. 100 µl of dimethyl sulfoxide (DMSO) was added into each well to dissolve the purple formazan formed. The colorimetric assay was measured and recorded at absorbance of 570 nm using a plate reader (EXL 800, USA). Relative cell viability (%) was calculated as (A570 of treated sample/A570 of untreated sample) x 100 [36, 37].

HepG2 cell line = assay: MTT assay, HepG2 cell line; format: cell-based, human; conditions: for Cytotoxicity at 5 µg/l: HepG2, 5 µg/l; for Cytotoxicity at 5 µg/l / Cytotoxicity at 10 µg/l / Cytotoxicity at 20 µg/l: MTT, 24 hr treatment, in % (unit assumed); for Cytotoxicity at 10 µg/l: HepG2, 10 µg/l; for Cytotoxicity at 20 µg/l: HepG2, 20 µg/l
Method: as §1, §2, §3

HCT-116 cell line = assay: MTT assay, HCT-116 cell line; format: cell-based, human; conditions: MTT, 24 hr treatment, in % (unit assumed); for Cytotoxicity at 5 µg/l: HCT116, 5 µg/l; for Cytotoxicity at 10 µg/l: HCT116, 10 µg/l; for Cytotoxicity at 20 µg/l: HCT116, 20 µg/l
Method: as §1, §2, §3

[1] = target: T1, Tropomyosin receptor kinase A (TrKA) (Homo sapiens, UniProt P04629); assay: Tropomyosin receptor kinase A (TrKA) inhibitory assay (Kinase-Glo MAX kit); format: biochemical; conditions: in vitro kinase assay, recombinant TrkA
T1 construct: purchased
T1 sequence (P04629 33-796): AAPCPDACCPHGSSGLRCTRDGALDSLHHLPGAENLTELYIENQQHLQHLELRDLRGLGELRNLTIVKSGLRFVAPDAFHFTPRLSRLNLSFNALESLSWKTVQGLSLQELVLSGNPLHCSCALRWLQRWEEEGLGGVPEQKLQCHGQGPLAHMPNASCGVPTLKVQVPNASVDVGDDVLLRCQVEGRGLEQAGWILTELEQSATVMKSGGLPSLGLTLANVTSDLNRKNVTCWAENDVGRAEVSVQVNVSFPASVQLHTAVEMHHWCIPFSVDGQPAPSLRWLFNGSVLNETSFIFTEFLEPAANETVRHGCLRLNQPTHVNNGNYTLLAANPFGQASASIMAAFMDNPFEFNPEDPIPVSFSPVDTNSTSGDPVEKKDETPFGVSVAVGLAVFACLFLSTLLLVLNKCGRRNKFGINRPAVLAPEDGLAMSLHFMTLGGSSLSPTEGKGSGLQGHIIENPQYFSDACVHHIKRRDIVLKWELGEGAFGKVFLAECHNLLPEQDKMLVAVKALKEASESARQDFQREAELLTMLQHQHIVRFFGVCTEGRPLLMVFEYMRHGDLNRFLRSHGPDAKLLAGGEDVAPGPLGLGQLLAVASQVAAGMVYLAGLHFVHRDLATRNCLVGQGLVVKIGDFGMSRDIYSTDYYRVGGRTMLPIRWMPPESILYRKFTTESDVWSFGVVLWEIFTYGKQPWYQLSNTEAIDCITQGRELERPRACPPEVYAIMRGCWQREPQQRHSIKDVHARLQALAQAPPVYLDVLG
Text: (§4) The TrkA assay Kit is designed to measure TrkA activity for screening and profiling applications using Kinase-Glo® MAX as a detection reagent. The TrkA Assay Kit comes in a convenient 96-well format, with enough purified recombinant TrkA enzyme, TrkA substrate, ATP and kinase assay buffer for 100 enzyme reactions. The method was discussed in details in the ESI.
as §4, with “reactions.” for “reactions. The method was discussed in details in the ESI.”
The assay protocol: all samples and controls should be tested in duplicate. Dissolve 5x Kinase Assay Buffer 1, ATP, and PTK Substrate Poly (Glu:Tyr 4:1) (10 mg/ml). 2). The master mixture (25 μl per well) was prepared by N wells x (6 μl 5x Kinase Assay Buffer 1 + 1 μl ATP (500 μM) + 1 μl PTK Substrate Poly (Glu:Tyr 4:1) (10mg/ml) + 17 μl water). Add 5 μl of Inhibitor solution of each well labeled as “Test Inhibitor”. For the “Positive Control" and “Blank”, add 5 μl of the same solution without inhibitor (Inhibitor buffer). Prepare 3 ml of 1x Kinase assay buffer 1 by mixing 600 μl of 5x Kinase assay buffer 1 with 2400 μl water 3 ml of 1x Kinase assay buffer is sufficient for 100 reactions. To the wells designated as "Blank", add 20 μl of 1x Kinase assay buffer 1and thaw TrkA enzyme on ice. Upon first thaw, briefly spin tube containing enzyme to recover full content of the tube. Calculate the amount of TrkA required for the assay and dilute enzyme to 5 ng/μl with 1x Kinase assay buffer. Store remaining undiluted enzyme in aliquots at -80°C. Then initiate reaction by adding 20 μl of diluted TrkA enzyme to the wells designated “Positive Control” and "Test Inhibitor Control". Incubate at 30°C for 45minutes and thaw Kinase-Glo Max reagent. After the 45 minute reaction, add 50 μl of Kinase-Glo Max reagent to each well. Cover plate with aluminum foil and incubate the plate at room temperature for 15 minutes. Immediately read sample in a luminometer or microtiter-plate capable of reading chemiluminescence. “Blank” value is subtracted from all readings.

HepG2 cells [2] = assay: In-vitro cell cycle analysis (PI flow cytometry); format: cell-based, human
Method: HepG-2 cells are pre-cultured in 25 cm^2 cell culture flask. RPMI-1640 medium was used. Tested compounds 7b, 9c, 15b, 16a and 16c were used in the cell treatment at their IC50 by dissolving them in the required medium separately. The procedure was discussed in details in the ESI.
For cell cycle analysis, stained DNA from HepG2 cancer cells was treated with compounds 7b, 15b, 16a and 16c that induce cancer cell death by inhibiting TrKA. From the results in Table 5, it can be seen that the proportion of cells at phase in the pre-G1 of compounds 7b, 15b, 16a and 16c increased the proportion of cells at phase in the G2/M by about 4, 4, 2.5 and 3 folds, respectively.
HepG-2 cells were pre-cultured in 25 cm^2 cell culture flasks; RPMI-1640 medium was used. Tested compounds 7b, 15b, 16a and 16c were dissolved separately in the required medium and used in the cell treatment at their IC50. After overnight treatment the cells were collected and fixed gently with 70% (v/v) ethanol in PBS, incubated overnight at 4 °C, and resuspended in PBS containing 40 µg/ml propidium iodide (PI), 0.1 mg/ml RNase and 0.1% (v/v) Triton X-100 in the dark room at after 30 min at 37 °C, the cell cycle analysis was performed using a flow cytometer, equipped with an argon ion laser at a wavelength of 488 nm (Becton-Dickinson, San Josa, CA, USA) and the percentage of cells at G1, S and G2/M was also calculated.

HepG2 cells [3] = assay: Annexin V-FITC apoptosis assay; format: cell-based, human
Method: HepG-2 cells were harvested and incubated with compounds 7b, 15b, 16a and 16c separately for 48 h. Then, the cells were collected and washed with PBS two successive times followed by centrifugation. After that, the cells were treated with Annexin V-FITC and propidium iodide (PI) using the apoptosis detection kit (BD Biosciences and Annexin V-FITC and PI binding were analyzed by a flow cytometer.
Early and late apoptosis was determined after treatment of HepG2 cells with compounds 7b, 15b, 16a and 16c compared with untreated control cells. The late apoptosis rate increased by about 13, 20, 4 and 3 times, respectively, showing a higher efficiency than the early apoptosis ratio 5, 2, 8 and 6 times, respectively.
As mentioned above, HepG-2 cells were collected and incubated separately with compounds 7b, 15b, 16a and 16c for 48 hr. Cells were then collected and washed twice consecutively with PBS and centrifuged. After that, the cells were treated with Annexin V-FITC and propidium iodide (PI) using an apoptosis detection kit (BD Biosciences, San Jose, CA) according to the manufacturer's instructions. The biding of Annexin V-FITC and PI was analyzed by ﬂow cytometer.

Trk family = test system: Trk family; design: method as in earlier work; conditions: cited from earlier work
[4] = HepG2, compared with untreated control cells

SMILES | Cytotoxicity at 5 µg/l (MCF7 cell line) | Cytotoxicity at 10 µg/l (MCF7 cell line) | Cytotoxicity at 20 µg/l (MCF7 cell line) | Cytotoxicity at 5 µg/l (HepG2 cell line) | Cytotoxicity at 10 µg/l (HepG2 cell line) | Cytotoxicity at 20 µg/l (HepG2 cell line) | Cytotoxicity at 5 µg/l (HCT-116 cell line) | Cytotoxicity at 10 µg/l (HCT-116 cell line) | Cytotoxicity at 20 µg/l (HCT-116 cell line) | IC50 [1] [nM] | further results
COc1ccc(C=C2C(=O)NC(=O)c3c2nn2c(O)cc(C)nc32)cc1 [Compound 15b, 4-Hydroxy-7-(4-methoxybenzylidene)-2-methylpyrido[4ʹ,3ʹ:3,4]pyrazolo[1,5-a]pyrimidine-8,10(7H,9H)-dione] | 28.52 | 62.92 | 83.62 | 49.48 | 75.98 | 78.66 | 26.10 | 66.87 | 84.20 | 288 | IC50 (HepG2 cell line; Homo sapiens, HepG2, MTT, read-out: IC50 (drug concentration that inhibited 50% of cell proliferation)): 4.64 ng/mL (≈ 0.0132 µM); Cell cycle comment (phase of arrest) (HepG2 cells [2]; HepG2): arrested in the cell cycle at G2/M phase; also recorded: arrest in cell cycle at the G2/M phase; also recorded: cell growth arrest@G2/M; DNA content %G0-G1 (HepG2 cells [2]; HepG2, compound at its IC50): 33.57%; DNA content %G2/M (HepG2 cells [2]; HepG2, compound at its IC50): 36.72%; DNA content %Pre-G1 (HepG2 cells [2]; HepG2, compound at its IC50): 32.51%; DNA content %S (HepG2 cells [2]; HepG2, compound at its IC50): 29.71%; increase of the proportion of cells in the G2/M phase (HepG2 cells [2]; HepG2, versus control): about 4 folds; Apoptosis Early (HepG2 cells [3]; HepG2, 48 h, Annexin V-FITC/PI): 2.93%; Apoptosis Late (HepG2 cells [3]; HepG2, 48 h, Annexin V-FITC/PI): 20.12%; Necrosis (HepG2 cells [3]; HepG2, 48 h, Annexin V-FITC/PI): 9.46%; apoptosis-inducing effect (HepG2 cells [3]; HepG2, as stated in the abstract): 36.72%; increase of early apoptosis ratio (HepG2 cells [3]; [4]): 2 times; increase of late apoptosis rate (HepG2 cells [3]; [4]): ~20 times
COc1ccc(N/N=C2\C(=O)NC(=O)c3c2nn2c(C)cc(C)nc32)cc1 [Compound 9c, 7-(2-(4-Methoxyphenyl)hydrazono)-2,4-dimethylpyrido[4ʹ,3ʹ:3,4]pyrazolo[1,5-a]pyri-midine-8,10(7H,9H)-dione] | 38.17 | 53.72 | 87.32 | 42.88 | 50.63 | 86.55 | 59.74 | 67.13 | 89.80 | 434 | melting point: 305 °C
O=C(Nc1cnn2ccc(N3CCC[C@@H]3c3cc(F)ccc3F)nc12)N1CC[C@H](O)C1 [Larotrectinib] | – | – | – | – | – | – | – | – | – | – | IC50 (Trk family): 2 to 20 nM
